pIC50: −log10 of the molar value. Where two headings read alike, the source gives them in different places.
Target: T1, PI3K alfa (Homo sapiens, UniProt P42336)
T1 construct: His tag (C); made in house; host or cells: baculovirus BV1075; Tn5 (Trichoplusia ni) or TiniPro insect cells
Assay: PI3K alpha kinase assay (Kinase-Glo luminescence)
Type: biochemical
Procedure, shortened: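 Kinase-Glo luminescence read of ATP remaining after PI3Kα (10 nM) phosphorylates 10 μg/mL bovine liver phosphatidylinositol with 1 μM ATP, pH 7.5 TRIS, 3 mM MgCl2, 0.05% CHAPS; 60 min at room temperature. IC50 from 4-parameter logistic fit over 8 concentrations.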

T1 sequence (P42336 with tags, fused parts or gaps limits assumed): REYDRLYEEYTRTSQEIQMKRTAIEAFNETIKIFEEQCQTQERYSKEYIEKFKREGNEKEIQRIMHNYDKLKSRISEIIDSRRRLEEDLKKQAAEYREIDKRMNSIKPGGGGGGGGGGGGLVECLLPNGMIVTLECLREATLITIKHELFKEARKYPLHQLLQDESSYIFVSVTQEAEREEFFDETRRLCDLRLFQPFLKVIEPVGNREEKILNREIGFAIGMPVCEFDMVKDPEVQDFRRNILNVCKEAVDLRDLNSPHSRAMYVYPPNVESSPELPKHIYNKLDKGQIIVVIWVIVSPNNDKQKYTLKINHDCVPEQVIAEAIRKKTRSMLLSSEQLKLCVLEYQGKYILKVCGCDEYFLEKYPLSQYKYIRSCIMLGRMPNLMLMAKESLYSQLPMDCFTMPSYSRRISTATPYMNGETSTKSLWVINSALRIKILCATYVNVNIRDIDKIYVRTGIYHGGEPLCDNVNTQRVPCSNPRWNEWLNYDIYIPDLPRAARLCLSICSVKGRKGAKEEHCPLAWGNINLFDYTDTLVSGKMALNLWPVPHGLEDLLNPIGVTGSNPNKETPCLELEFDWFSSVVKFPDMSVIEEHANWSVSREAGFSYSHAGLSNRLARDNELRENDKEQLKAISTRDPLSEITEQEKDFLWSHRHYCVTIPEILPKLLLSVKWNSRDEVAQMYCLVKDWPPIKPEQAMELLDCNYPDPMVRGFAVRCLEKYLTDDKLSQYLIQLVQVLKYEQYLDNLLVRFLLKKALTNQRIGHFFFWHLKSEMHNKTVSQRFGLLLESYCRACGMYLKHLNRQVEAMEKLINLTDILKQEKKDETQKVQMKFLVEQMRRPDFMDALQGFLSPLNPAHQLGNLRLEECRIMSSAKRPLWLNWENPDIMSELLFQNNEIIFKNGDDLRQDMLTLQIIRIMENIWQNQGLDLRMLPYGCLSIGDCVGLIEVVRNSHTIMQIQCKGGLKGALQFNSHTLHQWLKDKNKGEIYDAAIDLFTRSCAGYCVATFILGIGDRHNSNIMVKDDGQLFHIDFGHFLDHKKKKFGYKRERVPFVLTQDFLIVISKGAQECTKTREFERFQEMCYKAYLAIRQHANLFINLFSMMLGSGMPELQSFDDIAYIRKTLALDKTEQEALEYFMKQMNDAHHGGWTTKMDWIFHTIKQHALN

Row | Compound | pIC50 (read-out: EPK_PI3Kalfa/IC50) | pIC50 (read-out: PI3Kalfa/IC50)
1 | CCOc1ccc(-c2ccc3ncc4c(c3c2)n(-c2ccc(OCCOC)nc2C)c(=O)n4C)cn1 [Example 13.1, 8-(6-Ethoxy-pyridin-3-yl)-1-[6-(2-methoxy-ethoxy)-2-methyl-pyridin-3-yl]-3-methyl-1,3-dihydro-imidazo[4,5-c]quinolin-2-one] | 6.80 | –
2 | COc1ccc(-n2c(=O)n(C)c3cnc4ccc(-c5ccc6nccn6c5)cc4c32)c(OC)n1 [Example 8.10, 1-(2,6-Dimethoxy-pyridin-3-yl)-8-imidazo[1,2-a]pyridin-6-yl-3-methyl-1,3-dihydro-imidazo[4,5-c]quinolin-2-one] | 7.10 | –
3 | Cc1nc(F)ccc1-n1c(=O)n(C)c2cnc3ccc(-c4cncc(N)c4)cc3c21 [Example 7.16, 8-(5-Amino-pyridin-3-yl)-1-(6-fluoro-2-methyl-pyridin-3-yl)-3-methyl-1,3-dihydro-imidazo[4,5-c]quinolin-2-one] | 7.00 | –
4 | CNc1ccc(-c2ccc3ncc4c(c3c2)n(-c2ccc(N(C)CCOC)nc2C)c(=O)n4C)cn1 [Example 15.4, 1-{6-[(2-Methoxy-ethyl)-methyl-amino]-2-methyl-pyridin-3-yl}-3-methyl-8-(6-methylamino-pyridin-3-yl)-1,3-dihydro-imidazo[4,5-c]quinolin-2-one] | 7.34 | –
5 | CNc1ccc(-c2ccc3ncc4c(c3c2)n(-c2cnc(F)cc2C)c(=O)n4C)cn1 [Example 16.4, 1-(6-Fluoro-4-methyl-pyridin-3-yl)-3-methyl-8-(6-methylamino-pyridin-3-yl)-1,3-dihydro-imidazo[4,5-c]quinolin-2-one] | 7.33 | –
6 | COCCN(C)c1ccc(-n2c(=O)n(C)c3cnc4ccc(-c5cnc6c(ccn6C)c5)cc4c32)c(C)n1 [Example 15.7, 1-{6-[(2-Methoxy-ethyl)-methyl-amino]-2-methyl-pyridin-3-yl}-3-methyl-8-(1-methyl-1H-pyrrolo[2,3-b]pyridin-5-yl)-1,3-dihydro-imidazo[4,5-c]quinolin-2-one] | 7.74 | –
7 | CCOc1ccc(-c2ccc3ncc4c(c3c2)n(-c2cncc(C)c2)c(=O)n4C)cn1 [Example 17.1, 8-(6-Ethoxy-pyridin-3-yl)-3-methyl-1-(5-methyl-pyridin-3-yl)-1,3-dihydro-imidazo[4,5-c]quinolin-2-one] | 7.11 | –
8 | COc1ncccc1-n1c(=O)n(C)c2cnc3ccc(-c4cnc(N(C)C)nc4)cc3c21 [Example 1.9, 8-(2-Dimethylamino-pyrimidin-5-yl)-1-(2-methoxy-pyridin-3-yl)-3-methyl-1,3-dihydro-imidazo[4,5-c]quinolin-2-one] | – | 7.15
9 | CNc1ncc(-c2ccc3ncc4c(c3c2)n(-c2ccc(C)nc2C)c(=O)n4C)cn1 [Example 14.4, 1-(2,6-Dimethyl-pyridin-3-yl)-3-methyl-8-(2-methylamino-pyrimidin-5-yl)-1,3-dihydro-imidazo[4,5-c]quinolin-2-one] | 7.52 | –
10 | COCCOc1ccc(-n2c(=O)n(C)c3cnc4ccc(-c5cnc(COC)c(OC)c5)cc4c32)c(C)n1 [Example 22.3, 1-[6-(2-Methoxy-ethoxy)-2-methyl-pyridin-3-yl]-8-(5-methoxy-6-methoxymethyl-pyridin-3-yl)-3-methyl-1,3-dihydro-imidazo[4,5-c]quinolin-2-one] | 6.79 | –
11 | Cc1ccc(-n2c(=O)n(C)c3cnc4ccc(-c5cnc6c(ccn6C)c5)cc4c32)c(C)n1 [Example 14.7, 1-(2,6-Dimethyl-pyridin-3-yl)-3-methyl-8-(1-methyl-1H-pyrrolo[2,3-b]pyridin-5-yl)-1,3-dihydro-imidazo[4,5-c]quinolin-2-one] | 7.80 | –
12 | COCCOc1ccc(-n2c(=O)n(C)c3cnc4ccc(-c5cnc(N)c(C(F)(F)F)c5)cc4c32)c(C)n1 [Example 13.2, 8-(6-Amino-5-trifluoromethyl-pyridin-3-yl)-1-[6-(2-methoxy-ethoxy)-2-methyl-pyridin-3-yl]-3-methyl-1,3-dihydro-imidazo[4,5-c]quinolin-2-one] | 7.44 | –
13 | Cc1ccc(-n2c(=O)n(C)c3cnc4ccc(-c5cncc(NC(C)C)c5)cc4c32)c(C)n1 [Example 14.8, 1-(2,6-Dimethyl-pyridin-3-yl)-8-(5-isopropylamino-pyridin-3-yl)-3-methyl-1,3-dihydro-imidazo[4,5-c]quinolin-2-one] | 7.43 | –
14 | CCNc1cc(-c2ccc3ncc4c(c3c2)n(-c2cnc(F)cc2C)c(=O)n4C)cnc1C [Example 16.2, 8-(5-Ethylamino-6-methyl-pyridin-3-yl)-1-(6-fluoro-4-methyl-pyridin-3-yl)-3-methyl-1,3-dihydro-imidazo[4,5-c]quinolin-2-one] | 7.48 | –
15 | CNc1ncc(-c2ccc3ncc4c(c3c2)n(-c2ccc(F)nc2C)c(=O)n4C)cc1F [Example 7.12, 8-(5-Fluoro-6-methylamino-pyridin-3-yl)-1-(6-fluoro-2-methyl-pyridin-3-yl)-3-methyl-1,3-dihydro-imidazo[4,5-c]quinolin-2-one] | 7.36 | –
16 | CNc1ccc(-c2ccc3ncc4c(c3c2)n(-c2ccc(OCCOC)nc2C)c(=O)n4C)cn1 [Example 13.3, 1-[6-(2-Methoxy-ethoxy)-2-methyl-pyridin-3-yl]-3-methyl-8-(6-methylamino-pyridin-3-yl)-1,3-dihydro-imidazo[4,5-c]quinolin-2-one] | 7.51 | –
17 | COCCN(C)c1ccc(-n2c(=O)n(C)c3cnc4ccc(-c5cncc(N)c5)cc4c32)c(C)n1 [Example 15.8, 8-(5-Amino-pyridin-3-yl)-1-{6-[(2-methoxy-ethyl)-methyl-amino]-2-methyl-pyridin-3-yl}-3-methyl-1,3-dihydro-imidazo[4,5-c]quinolin-2-one] | 7.31 | –
18 | COc1ncccc1-n1c(=O)n(C)c2cnc3ccc(-c4ccc(F)nc4)cc3c21 [Example 1.8, 8-(6-Fluoro-pyridin-3-yl)-1-(2-methoxy-pyridin-3-yl)-3-methyl-1,3-dihydro-imidazo[4,5-c]quinolin-2-one] | – | 7.24
19 | Cc1nc(C(C)(C)O)ccc1-n1c(=O)n(C)c2cnc3ccc(-c4cncc(OC(C)C)c4)cc3c21 [Example 31.9, 1-[6-(1-Hydroxy-1-methyl-ethyl)-2-methyl-pyridin-3-yl]-8-(5-isopropoxy-pyridin-3-yl)-3-methyl-1,3-dihydro-imidazo[4,5-c]quinolin-2-one] | 7.29 | –
20 | Cc1nc(N2CCC(O)C2)ccc1-n1c(=O)n(C)c2cnc3ccc(-c4cncc(OC(C)C)c4)cc3c21 (centres unmarked) [Example 27.1, 1-[6-(3-Hydroxy-pyrrolidin-1-yl)-2-methyl-pyridin-3-yl]-8-(5-isopropoxy-pyridin-3-yl)-3-methyl-1,3-dihydro-imidazo[4,5-c]quinolin-2-one] | 7.68 | –

Further lines, results first:

Row | pIC50 (read-out: EPK_PI3Kalfa/IC50) | pIC50 (read-out: PI3Kalfa/IC50) | Compound
21 | 8.00 | – | Cc1nc(N2CC(F)(F)C2)ccc1-n1c(=O)n(C)c2cnc3ccc(-c4cncc(C(C)(C)O)c4)cc3c21 [Example 24.2, 1-[6-(3,3-Difluoro-azetidin-1-yl)-2-methyl-pyridin-3-yl]-8-[5-(1-hydroxy-1-methyl-ethyl)-pyridin-3-yl]-3-methyl-1,3-dihydro-imidazo[4,5-c]quinolin-2-one]
22 | 8.30 | – | COc1ccc(-n2c(=O)n(C)c3cnc4ccc(-c5cnc(N(C)C)nc5)cc4c32)c(Cl)n1 [Example 18.3, 1-(2-Chloro-6-methoxy-pyridin-3-yl)-8-(2-dimethylamino-pyrimidin-5-yl)-3-methyl-1,3-dihydro-imidazo[4,5-c]quinolin-2-one]
23 | 7.89 | – | CCNc1cc(-c2ccc3ncc4c(c3c2)n(-c2ccc(OCCOC)nc2C)c(=O)n4C)cnc1C [Example 13.4, 8-(5-Ethylamino-6-methyl-pyridin-3-yl)-1-[6-(2-methoxy-ethoxy)-2-methyl-pyridin-3-yl]-3-methyl-1,3-dihydro-imidazo[4,5-c]quinolin-2-one]
24 | 7.82 | – | CNc1cc(-c2ccc3ncc4c(c3c2)n(-c2ccc(C(F)(F)F)nc2C)c(=O)n4C)cnc1CO [Example 33.2, 8-(6-Hydroxymethyl-5-methylamino-pyridin-3-yl)-3-methyl-1-(2-methyl-6-trifluoromethyl-pyridin-3-yl)-1,3-dihydro-imidazo[4,5-c]quinolin-2-one]
25 | 8.15 | – | COCCN(C)c1ccc(-n2c(=O)n(C)c3cnc4ccc(-c5cnc(N)c(C(F)(F)F)c5)cc4c32)c(C)n1 [Example 15.1, 8-(6-Amino-5-trifluoromethyl-pyridin-3-yl)-1-{6-[(2-methoxy-ethyl)-methyl-amino]-2-methyl-pyridin-3-yl}-3-methyl-1,3-dihydro-imidazo[4,5-c]quinolin-2-one]
26 | 7.96 | – | CNc1ncc(-c2ccc3ncc4c(c3c2)n(-c2ccc(N(C)C)nc2C)c(=O)n4C)cn1 [Example 19.1, 1-(6-Dimethylamino-2-methyl-pyridin-3-yl)-3-methyl-8-(2-methylamino-pyrimidin-5-yl)-1,3-dihydro-imidazo[4,5-c]quinolin-2-one]
27 | 7.96 | – | CCNc1cc(-c2ccc3ncc4c(c3c2)n(-c2ccc(N3CC(F)(F)C3)nc2C)c(=O)n4C)cnc1CO [Example 24.3, 1-[6-(3,3-Difluoro-azetidin-1-yl)-2-methyl-pyridin-3-yl]-8-(5-ethylamino-6-hydroxymethyl-pyridin-3-yl)-3-methyl-1,3-dihydro-imidazo[4,5-c]quinolin-2-one]
28 | 7.92 | – | CCNc1cc(-c2ccc3ncc4c(c3c2)n(-c2ccc(N(C)CCOC)nc2C)c(=O)n4C)cnc1C [Example 15.6, 8-(5-Ethylamino-6-methyl-pyridin-3-yl)-1-{6-[(2-methoxy-ethyl)-methyl-amino]-2-methyl-pyridin-3-yl}-3-methyl-1,3-dihydro-imidazo[4,5-c]quinolin-2-one]
29 | 8.15 | – | Cc1nc(N2CC(F)(F)C(F)(F)C2)ccc1-n1c(=O)n(C)c2cnc3ccc(-c4cncc(C(C)(C)O)c4)cc3c21 [Example 35.1, 8-[5-(1-Hydroxy-1-methyl-ethyl)-pyridin-3-yl]-3-methyl-1-[2-methyl-6-(3,3,4,4-tetrafluoro-pyrrolidin-1-yl)-pyridin-3-yl]-1,3-dihydro-imidazo[4,5-c]quinolin-2-one]

— US20100311714A1, “1H-IMIDAZO[4,5-c]QUINOLINONE COMPOUNDS” (priority 2009, published 2010)
